The values below come from paper PMC4087041, “Effect of the Piperazine Unit and Metal-Binding Site Position on the Solubility and Anti-Proliferative Activity of Ruthenium(II)- and Osmium(II)- Arene Complexes of Isomeric Indolo[3,2-c]quinoline—Piperazine Hybrids” (Inorganic Chemistry, 2014).

For orientation: IC50 means the point on the concentration scale where inhibition reaches its midpoint.

The subject of data set [1] is SK-N-MC neuroepithelioma cells. The data set can be described thus: MTT assay, inhibition of growth of SK-N-MC cells. It is filed as cell-based, Human. As to conditions: 72 h, medium with diferric transferrin 1.25 μM, mean ± SD (three experiments), read-out: IC50 at inhibiting the growth of SK-N-MC neuroepithelioma cells. As for the experimental part:
Human SK-N-MC neuroepithelioma cells were obtained from the American Type Culture Collection (ATCC; Manassas, VA). The SK-N-MC cell type was grown as described previously.[51]
The effect of complexes [1a,b]Cl–[3a,b]Cl on the cellular proliferation of SK-N-MC cells was examined using the 1-(4,5-dimethylthiazol-2-yl)-2,5-diphenyl-tetrazolium (MTT) assay by standard techniques.[52],[53] Human SK-N-MC cells were chosen for these studies as the antiproliferative effect of metal complexes has been extensively examined in this cell type.[52]−[54] MTT reduction is proportional to viable cell counts using SK-N-MC cells.[51] SK-N-MC cells were seeded at 1.5 × 10^4 cells/well in 96-well microtiter plates in a medium containing the compounds (0–50 μM) and human diferric transferrin (Tf) at 1.25 μM ([Fe] = 2.5 μM). Control samples contained Tf (1.25 μM) in the absence of the compounds. […] It is essential to add to the media when assessing the antiproliferative activity of the ligands used as positive controls, namely, desferrioxamine (DFO), di-2-pyridylketone 4,4-dimethyl-3-thiosemicarbazone (Dp44mT), and Doxorubicin.[61] The cells were incubated at 37 °C for 72 h, after which 10 μL of MTT solution (stock solution: 5 mg/mL) was added to each well and incubated for 2 h at 37 °C. After cell solubilization using 100 μL of 10% SDS–50% isobutanol in 0.01 M HCl, the plates were read at 570 nm using a scanning multiwell spectrophotometer. The inhibitory concentration (IC50) was defined as the concentration of the compound necessary to reduce the absorbance to 50% of the untreated control.

Data set [2] in a line: Hydrolysis / stability in aqueous media by HPLC. Conditions: for Estimated half-lifetime of the chlorido species: 75 μM solution in 20 mM phosphate buffer at pH 7.40, HPLC with UV detection at 300 nm; for Fraction of complex hydrolyzed after 24 h: 20 mM NaH2PO4/Na2HPO4 buffer at pH 7.40, 24 h, HPLC (Figure S4). Type of data set: physicochemical. On the procedure:
One-dimensional (1D) ^1H and ^13C NMR and two-dimensional (2D) ^1H–^1H COSY, ^1H–^1H TOCSY, ^1H–^1H ROESY or ^1H–^1H NOESY, ^1H–^13C HSQC, and ^1H–^13C HMBC NMR spectra were recorded on two Bruker Avance III spectrometers at 500.32 or 500.10 (^1H), and 125.82 or 125.76 (^13C) MHz, respectively, by using DMSO-d6 as a solvent at room temperature and standard pulse programs. ^1H and ^13C shifts are quoted relative to the solvent residual signals. The atom numbering scheme used for NMR assignments is depicted in Supporting Information, Scheme S1. Electrospray ionization mass spectrometry (ESI-MS) was carried out with a Bruker Esquire 3000 instrument, and the samples were dissolved in methanol. Elemental analyses were performed at the Microanalytical Laboratory of the University of Vienna with a PerkinElmer 2400 CHN Elemental Analyzer (PerkinElmer, Waltham, MA). Hydrolysis studies were undertaken on a ThermoFisher Dionex UltiMate 3000 HPLC (Waltham, MA) device. The column compartment was kept at 298 K. A Hypersil Gold C18 Reversed phase Silica Column (250 × 4.6 mm, 5 μm particle size, ThermoFisher; Waltham, MA) equipped with a guard column was used. The complexes were dissolved in either pure deionized water or phosphate buffer at pH 7.40 so that the final concentrations were 100 mM or 75 μM, respectively. Samples were automatically injected into the HPLC, and separation of the hydrolysis products was achieved by applying gradient elution (5–80% or 10–50% acetonitrile in 15 mM aqueous formic acid). Detection and quantification of the peaks was conducted using the ThermoFisher Dionex DAD-3000RS UV detector (Waltham, MA) at a wavelength of 300 nm and the Chromeleon 7 software package (ThermoFisher Dionex, Sunnyvale, CA).
Their stability in deionized water (Supporting Information, Figure S3) is very similar to that in buffered solution at physiological pH (Supporting Information, Figure S4; 20 mM NaH2PO4/Na2HPO4 buffer at pH 7.40). […] Attempts to establish the nature of the predominant hydrolysis reactions were then performed. The fractions containing the two peaks from the hydrolysis of [2a]Cl were collected and subjected to high-resolution ESI mass spectrometry. The most abundant mass at m/z 373.1397 could be attributed to the doubly charged fragment [M–2Cl]^2+, whereas the second peak at m/z 736.2786 was assigned to the hydroxido species [M–2Cl+OH]^+, clearly stemming from hydrolysis of the chlorido ligand.
Data were recorded every hour over 24 h using HPLC with UV detection at 300 nm (see Experimental Section for details). Quantification was done by normalizing the AUC to the AUC at 0 h.

The nature of data set [3]: Stability in DMSO by ESI mass spectrometry. It is filed as physicochemical. Conditions: DMSO solution, up to 19 h old, diluted with methanol 1:100, ESI-MS. From the text: Complexes [3a]Cl and [3b]Cl remain intact when dissolved in DMSO.

Like-named read-outs stand apart in the source and are kept apart here.

With `CC(=O)N(O)CCCCCNC(=O)CCC(=O)N(O)CCCCCNC(=O)CCC(=O)N(O)CCCCCN` [DFO, desferrioxamine, reference compound], the IC50 in data set [1] (Homo sapiens, SK-N-MC) was determined as 9.83 ± 0.39 µM.
On the same count and under the same terms, then `COc1cccc2c1C(=O)c1c(O)c3c(c(O)c1C2=O)C[C@@](O)(C(=O)CO)C[C@@H]3O[C@H]1C[C@H](N)[C@H](O)[C@H](C)O1` [DOX, doxorubicin, reference compound], with 0.15 ± 0.05 µM.
For `CN(C)C(=S)NN=C(c1ccccn1)c1ccccn1` [Dp44mT, di-2-pyridylketone 4,4-dimethyl-3-thiosemicarbazone, reference compound], the 50% inhibitory concentration (IC50) in data set [1] turned out to be 0.004 ± 0.003 µM.
On the same count and under the same terms, then “(η^6-p-Cymene)[6-(4-methylpiperazin-1-yl)-κN-(pyridin-2-yl-methylene)-11H-indolo[3,2-c]quinolin-2-κN-amine]chloridoosmium(II) Chloride [[1b]Cl]”, with more than 50 µM; and “(η^6-p-Cymene)[6-(4-methylpiperazin-1-yl)-κN-(pyridin-2-yl-methylene)-11H-indolo[3,2-c]quinolin-2-κN-amine]chloridoruthenium(II) Chloride [[1a]Cl]”, with 39.8 ± 2.07 µM.
For the compound “(η^6-p-Cymene)[6-(4-methylpiperazin-1-yl)-κN-(pyridin-2-yl-methylene)-11H-indolo[3,2-c]quinolin-4-κN-amine]chloridoosmium(II) Chloride [[2b]Cl]”, in data set [2], the “Estimated half-lifetime of the chlorido species” value is listed as “approximately 6 h” and the “Fraction of complex hydrolyzed after 24 h” value is given as “greater than 90%”. Further, in data set [1], the concentration for half-maximal inhibition (IC50) came out at 19.4 ± 1.28 µM.
Take “(η^6-p-Cymene)[6-(4-methylpiperazin-1-yl)-κN-(pyridin-2-yl-methylene)-11H-indolo[3,2-c]quinolin-4-κN-amine]chloridoruthenium(II) Chloride [[2a]Cl]”: in data set [2], the “Estimated half-lifetime of the chlorido species” value was “approximately 6 h” and the “Fraction of complex hydrolyzed after 24 h” value is “greater than 90%”. Besides, the “AUC of third (minor) hydrolysis species compared to the starting material” value in data set [2] (75 μM solution in 20 mM phosphate buffer at pH 7.40, after 24 h) is given as “approximately 12%”. Besides, in data set [1], the half-inhibitory concentration (IC50) came to 18.4 ± 2.22 µM.
As to “(η^6-p-Cymene)[6-(4-methylpiperazin-1-yl)-κN-(pyridin-2-yl-methylene)-11H-indolo[3,2-c]quinolin-8-κN-amine]chloridoosmium(II) Chloride [[3b]Cl]”, the “Stability when dissolved in DMSO” value in data set [3] is on record as “remain intact”. The concentration for half-maximal inhibition (IC50) in data set [1] was determined as 41.2 ± 2.37 µM.
On the same counts, the results for “(η^6-p-Cymene)[6-(4-methylpiperazin-1-yl)-κN-(pyridin-2-yl-methylene)-11H-indolo[3,2-c]quinolin-8-κN-amine]chloridoruthenium(II) Chloride [[3a]Cl]” are “remain intact” and more than 50 µM.
